“And” between values parts separate entries of the source, which are not always exact repeats. Equal entries are not always repeated.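 How tested: cells in 96-well plates exposed to compound for 48 hours at five concentrations. GI50 is the concentration that inhibits growth by half. At the TGI there is no net growth.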
Tests used:
Experiment in all cases: NCI anticancer screen, dose series, 48 h
[1] = system: DLD-1 colon
[2] = system: HOP-18 NSCLC
[3] = system: RXF-631 renal
[4] = system: KM20L2 colon
[5] = system: XF 498 CNS
[6] = system: M19-MEL melanoma
[7] = system: LXFL 529 NSCLC
[8] = system: DMS 273 small cell lung
[9] = system: MDA-N

## O=C(CCC(=O)Nc1ccc(Cl)c(Cl)c1)CC(=O)c1ccc(Br)cc1
[1]
  TGI: > 100 µM
[2]
  TGI: > 100 µM
[3]
  TGI: > 100 µM
[4]
  TGI: > 100 µM
[5]
  TGI: > 100 µM
[6]
  TGI: > 100 µM
[7]
  TGI: > 100 µM

## CCOC(=O)C1=C(Nc2ccc(Cl)cc2Cl)OCC1=O
[1]
  TGI: > 100 µM
[3]
  TGI: > 100 µM
[4]
  TGI: > 100 µM
[5]
  TGI: > 100 µM
[8]
  TGI: > 100 µM
[6]
  TGI: > 100 µM
[7]
  TGI: > 100 µM

## CC1=CC(=O)CC2(C)CC[C@@H]3C[C@]12OC3(C)C (some centres undefined)
[1]
  TGI: > 100 µM
[2]
  TGI: > 100 µM
[4]
  TGI: > 100 µM
[5]
  TGI: > 100 µM
[8]
  TGI: > 100 µM
[6]
  TGI: > 100 µM
[7]
  TGI: > 100 µM

## CCC1CC2C(=O)N(c3ccccc3)C(=O)C2c2[nH]c3ccccc3c21 (centres undefined)
[1]
  TGI: > 100 µM
[2]
  TGI: 45.8 µM
[3]
  TGI: 29.4 µM
[5]
  TGI: 42 µM
[6]
  TGI: 79.9 µM
[7]
  TGI: 70.4 µM

## C=C1C(=O)OC2C/C(C)=C/CC/C(C)=C/CCC3(COC(C)=O)OC3CC12 (centres undefined)
[1]
  TGI: 14.4 µM
[2]
  TGI: 23.3 µM
[4]
  TGI: 19.9 µM
[5]
  TGI: 19.5 µM
[8]
  TGI: 20.9 µM
[6]
  TGI: 26.4 µM
[7]
  TGI: 8.1 µM

## CC1CCC2(NC1)OC1CC3C4CC=C5CC(O)CCC5(C)C4CCC3(C)C1C2C (centres undefined)
[9]
  GI50: 31.1 µM and 12.2 µM
  TGI: > 100 µM

## COc1cc(C2SCCCCCCCCCCSC(c3ccc(O)c(OC)c3)SCCCCCCCCCCS2)ccc1O (centres undefined)
[9]
  TGI: > 100 µM

## O=c1/c(=C/c2ccccc2[N+](=O)[O-])sc2nc3ccccc3n12
[1]
  TGI: 37.3 µM
[2]
  TGI: > 46.4 µM
[3]
  TGI: > 46.4 µM
[4]
  TGI: > 100 µM
[5]
  TGI: > 59.3 µM
[8]
  TGI: > 46.4 µM
[6]
  TGI: > 46.4 µM
[7]
  TGI: > 46.4 µM

## N/N=C1\C(=O)N(C2CCCCCC2)C(=O)C1C(=O)NC1CCCCCC1 (centres undefined)
[1]
  TGI: > 100 µM
[2]
  TGI: 91.4 µM
[4]
  TGI: 38.1 µM
[6]
  TGI: > 100 µM
[7]
  TGI: 78.3 µM

## COC12CCC(=O)C=C1c1ccccc1N2C(C)=O (centres undefined)
[1]
  TGI: > 100 µM
[2]
  TGI: > 100 µM
[4]
  TGI: > 100 µM
[5]
  TGI: > 100 µM
[8]
  TGI: > 100 µM
[6]
  TGI: > 100 µM
[7]
  TGI: > 100 µM

## Cc1nn[n-]n1.N.N.N.N.N.[Cl-].[Co+3]
[1]
  GI50: > 100 µM
  TGI: > 100 µM
[2]
  GI50: > 100 µM
  TGI: > 100 µM
[4]
  GI50: > 100 µM
  TGI: > 100 µM
[8]
  GI50: > 100 µM
  TGI: > 100 µM
[7]
  GI50: > 100 µM
  TGI: > 100 µM

## Cc1ccccc1NC(=O)c1cc(-c2ccc([N+](=O)[O-])cc2)nc(=S)[nH]1
[1]
  TGI: > 100 µM
[2]
  TGI: > 100 µM
[3]
  TGI: > 100 µM
[4]
  TGI: > 100 µM
[8]
  TGI: > 100 µM
[7]
  TGI: > 100 µM

## N#Cc1ccccc1C(Cl)(Cl)c1cnccn1
[1]
  TGI: > 100 µM
[2]
  TGI: > 100 µM
[5]
  TGI: 33.8 µM
[8]
  TGI: > 100 µM
[6]
  TGI: > 100 µM
[7]
  TGI: > 100 µM

## O=C1CC2C(=O)c3ccccc3CC2c2ccccc21 (centres undefined)
[9]
  TGI: > 100 µM

## CCNC(=O)COc1ccc(Br)cc1Br
[1]
  TGI: > 100 µM
[2]
  TGI: > 100 µM
[3]
  TGI: > 100 µM
[4]
  TGI: > 100 µM
[8]
  TGI: > 100 µM
[6]
  TGI: > 100 µM
[7]
  TGI: > 100 µM

## CC1/C=C/[C@@]2(C)CCC(C(C)(C)O)C2C(O)C[C@](C)(O)/C=C/C1 (some centres undefined)
[1]
  TGI: > 100 µM
[2]
  TGI: > 100 µM
[4]
  TGI: > 100 µM
[5]
  TGI: > 100 µM
[8]
  TGI: > 100 µM
[7]
  TGI: > 100 µM

## CC1=C[C@H]2c3c([nH]c4ccccc34)C(c3c[nH]c4ccccc34)[C@H]2CC1 (some centres undefined)
[1]
  TGI: 19.1 µM
[2]
  TGI: 24.1 µM
[3]
  TGI: 14.1 µM
[8]
  TGI: 15.8 µM
[6]
  TGI: 22.9 µM
[7]
  TGI: 15.5 µM

## CC1=Nc2c(ccc3c2C(=O)c2ccccc2C3=O)NC(c2cccc3c2CCC3)C1 (centres undefined)
[1]
  TGI: > 100 µM
[2]
  TGI: > 100 µM
[3]
  TGI: > 100 µM
[4]
  TGI: > 100 µM
[5]
  TGI: > 100 µM
[8]
  TGI: > 100 µM
[6]
  TGI: > 72.6 µM
[7]
  TGI: > 100 µM

## CCCNC(=O)C1C(=O)C(=O)N(CCC)C1=O (centres undefined)
[1]
  TGI: > 100 µM
[2]
  TGI: > 100 µM
[4]
  TGI: > 100 µM
[5]
  TGI: > 100 µM
[8]
  TGI: > 100 µM
[6]
  TGI: > 100 µM
[7]
  TGI: > 100 µM

Source: PubChem BioAssay (NCI)
